In brackets after ≈: the same amount, converted by molar mass. Entries after “also recorded” stand apart in the source; their conditions may differ. Like-named read-outs stand apart in the source and are kept apart here.
Tests used:
[1] = system: Mtb inside J774.1 macrophages; assay: Intramacrophage activity in J774.1 cells; assay type: cell-based, Mycobacterium tuberculosis
Mtb [2] = assay: Checkerboard combination assay with known anti-TB drugs (FIC index); assay type: cell-based, Mycobacterium tuberculosis; settings: nine anti-TB drugs
Excerpt: Combination Testing of mCLB073 with Known Anti-TB Drugs
To test for interactions between mCLB073 and known anti-tubercular drugs in combination in an in vitro growth assay, a checkerboard assay to test for interactions between mCLB073 and drugs with known anti-TB activity using Alamar Blue as a viability marker (Lechartier et al., 2012) was used. Drug combinations were categorized based on fractional inhibitory concentration (FIC) index of FIC≤0.5 as synergistic, 0.5<FIC≤1 as additive, 1<FIC≤4 as no interaction and FIC ≥4 as antagonism (Hall et al., 1983).
Performed were synergy studies between mCLB073 and nine anti-TB drugs: Moxifloxacin (MOXI), Isoniazid (INH), Rifampicin (RIF), Streptomycin (STR), Levofloxacin (LEV), Linezolid (LIN), Ethionamide (ETH), Pretomanid (PA-824), and Bedaquiline (BDQ). A checkerboard titration in a microtiter plate was used as previously described (Hsieh et al., 1993).

[3] = system: Mtb H37Rv (Mtb-lux) inside PMA-differentiated THP-1 cells; assay: Intramacrophage activity in THP-1 cells; assay type: cell-based, Mycobacterium tuberculosis
[4] = Plasma exposure over the cholesterol-media EC50 after oral dosing in mice; assay type: in vivo
Mtb H37Rv = assay: MIC determination in Mtb H37Rv (MABA, 7H12-Cholesterol media); assay type: cell-based; settings: Mycobacterium tuberculosis, two batches
Method: MIC Determination in Mtb H37Rv
The minimum inhibitory concentration (MIC) of the test compounds were determined using ten-point, two-fold serial dilutions in 7H12-Cholesterol media using Microdilution Alamar Blue Assay (MABA) as previously described (Cho et al., 2015; VanderVen et al., 2015). Briefly, Mycobacterial cells at the mid-logarithmic phase of growth were diluted (1:1,000). Twenty μl of this dilution was added to each well containing 2-fold serially diluted test compounds and incubated for 7 days at 37° C. Alamar Blue (Invitrogen) reagent (4 μL per well) was added along with 20% Tween 80 (2.5 μL per well, Sigma Aldrich) to evaluate bacterial cell viability. Plates were read 24 h after adding Alamar Blue at absorbance 570 nm with a reference wavelength of 600 nm.

[5] = system: non-replicating M. tuberculosis; assay: Hu Coats 100-day old culture model; settings: for Cidal activity compared to the NixTB combination: with Pretomanid and Bedaquiline
Mtb [6] = assay type: in vivo, BALB/c mice; settings: for Reduction in lung CFUs: mouse, in vivo
Mtb H37Ra = settings: read-out: IC50 against Mtb H37Ra in cholesterol media
hERG = hERG (Homo sapiens, UniProt Q12809); assay: in vitro; assay type: biochemical; settings: Table S2
Extraction ratio, mouse = settings: Table S2
[7] = Mouse plasma protein binding
Solubility at pH 6.8 = settings: pH 6.8, aqueous buffer
Extraction ratio, human = settings: Table S2
[8] = system: Mtb cholesterol degradation; assay: Catabolic release of 14CO2 from radiolabelled lipid by Mtb; assay type: cell-based, Mycobacterium tuberculosis
Method: Because V-59 impairs growth of Mtb in cholesterol media, whether using V-59 to chemically activate Rv1625c inhibits the bacterium's ability to break down cholesterol was tested. When Mtb degrades the A-ring of [4-^14C]-cholesterol, [1-^14C]-pyruvate is released; subsequently, pyruvate dehydrogenase activity mediates the conversion of [1-^14C]-pyruvate into acetyl-CoA and ^14CO2. Therefore, to quantify cholesterol degradation in Mtb, ^14CO2 released following [4-^14C]-cholesterol breakdown by the bacteria was captured.

Mtb [9] = assay: Mtb growth inhibition in standard rich growth media (7H9 OADC) or acetate media; assay type: cell-based, Mycobacterium tuberculosis; settings: media containing acetate
M. tuberculosis = assay: Extracellular activity against M. tuberculosis in cholesterol media (Alamar Blue reduction assay); assay type: cell-based, Mycobacterium tuberculosis; settings: Mycobacterium tuberculosis; read-out: EC50, inhibition of Mtb growth in cholesterol media
mammalian AC enzymes = settings: human cell lines, 10 μM
Mtb in macrophages = assay: Inhibition of Mtb replication in macrophages (intramacrophage EC50); assay type: cell-based, Mycobacterium tuberculosis; settings: Mycobacterium tuberculosis, Macrophage; read-out: EC50, inhibition of Mtb replication in macrophages
prpD'::GFP reporter = assay type: cell-based, Mycobacterium tuberculosis; settings: V-59 10 μM
Rv1625c = target: T1, Rv1625c (Mycobacterium tuberculosis, UniProt P9WQ35); assay type: cell-based
T1 construct: endogenous in cells; host or cells: whole Mycobacterium tuberculosis (WT; CompFull = ΔRv1625c complemented with the entire rv1625c gene)
T1 sequence (P9WQ35 1-443): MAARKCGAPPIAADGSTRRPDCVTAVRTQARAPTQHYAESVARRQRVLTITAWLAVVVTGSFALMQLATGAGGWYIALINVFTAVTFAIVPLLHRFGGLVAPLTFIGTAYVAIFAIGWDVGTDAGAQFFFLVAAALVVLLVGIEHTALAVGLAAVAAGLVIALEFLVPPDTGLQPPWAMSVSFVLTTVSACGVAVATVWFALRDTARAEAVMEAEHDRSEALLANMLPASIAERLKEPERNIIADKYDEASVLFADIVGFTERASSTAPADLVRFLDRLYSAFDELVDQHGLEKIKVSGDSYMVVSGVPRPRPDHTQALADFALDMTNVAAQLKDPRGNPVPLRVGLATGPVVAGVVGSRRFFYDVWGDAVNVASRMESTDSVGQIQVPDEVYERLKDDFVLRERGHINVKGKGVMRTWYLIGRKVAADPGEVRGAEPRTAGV

Mtb [10] = assay: Chronic Mtb infection in C3HeB/FeJ mice; assay type: in vivo; settings: infected and treated in the same manner

Chain of hERG (Q12809 whole entry): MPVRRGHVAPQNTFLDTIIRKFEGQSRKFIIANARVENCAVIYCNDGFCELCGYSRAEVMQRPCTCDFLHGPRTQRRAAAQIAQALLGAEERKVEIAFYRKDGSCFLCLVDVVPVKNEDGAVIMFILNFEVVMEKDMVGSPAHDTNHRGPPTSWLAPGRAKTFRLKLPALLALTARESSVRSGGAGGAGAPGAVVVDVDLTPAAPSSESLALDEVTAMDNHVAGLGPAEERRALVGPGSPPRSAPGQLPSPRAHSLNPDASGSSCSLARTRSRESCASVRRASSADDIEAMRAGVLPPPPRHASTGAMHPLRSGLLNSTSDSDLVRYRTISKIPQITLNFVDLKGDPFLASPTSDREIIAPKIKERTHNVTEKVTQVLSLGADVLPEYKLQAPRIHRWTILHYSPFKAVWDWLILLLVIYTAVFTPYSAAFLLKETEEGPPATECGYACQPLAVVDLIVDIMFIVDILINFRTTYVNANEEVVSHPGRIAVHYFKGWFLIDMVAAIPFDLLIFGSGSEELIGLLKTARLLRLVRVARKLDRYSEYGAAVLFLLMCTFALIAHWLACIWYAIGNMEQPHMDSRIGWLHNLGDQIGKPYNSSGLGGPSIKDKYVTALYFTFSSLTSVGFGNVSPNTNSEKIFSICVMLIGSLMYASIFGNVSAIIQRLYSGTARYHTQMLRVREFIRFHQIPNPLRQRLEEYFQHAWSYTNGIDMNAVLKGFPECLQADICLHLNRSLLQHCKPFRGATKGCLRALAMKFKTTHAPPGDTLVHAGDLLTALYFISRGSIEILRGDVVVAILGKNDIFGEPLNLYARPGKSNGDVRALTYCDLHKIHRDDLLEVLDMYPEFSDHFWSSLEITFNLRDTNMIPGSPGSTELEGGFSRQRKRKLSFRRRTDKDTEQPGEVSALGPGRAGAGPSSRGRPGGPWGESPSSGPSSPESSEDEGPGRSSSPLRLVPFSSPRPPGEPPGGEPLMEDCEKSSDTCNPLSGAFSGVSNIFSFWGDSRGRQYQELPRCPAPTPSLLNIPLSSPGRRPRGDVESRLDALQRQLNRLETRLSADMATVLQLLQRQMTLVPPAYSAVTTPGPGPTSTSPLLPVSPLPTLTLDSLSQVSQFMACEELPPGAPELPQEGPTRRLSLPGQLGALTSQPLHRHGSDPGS

Q: What does the source list for Cn1ncnc1CC(=O)N1CCC(c2nc(-c3ccc(Cl)c(Cl)c3)no2)CC1 [mCLB073, 1-(4-(3-(3,4-dichlorophenyl)-1,2,4-oxadiazol-5-yl)-1-piperidinyl)-2-(2-methyl-2H-1,2,4-triazol-3-yl)-1-ethanone]?
A: Sinf (maximum inhibition), J774.1 [1]: 42.1%; EC50 ([1]; Mycobacterium tuberculosis, J774.1, 72 h, luminescence, day 3, read-out: EC50, growth of Mtb inside J774.1 macrophages): 50 nM; Antagonism with known anti-TB drugs (Mtb [2]): did not display any antagonism; Sinf (maximum inhibition), THP-1 [3]: 76.8%; EC50 ([3]; Mycobacterium tuberculosis, H37RV, THP-1, 72 h, luminescence, day 3, read-out: EC50, growth of Mtb inside PMA-differentiated THP-1 cells): 40 nM; Plasma exposure over the EC50 identified in cholesterol media ([4]; dosed orally in mice): at least 24 hours; MIC90 (Mtb H37Rv): 0.28 µM (≈ 0.118 µg/mL); Efficacy when tested individually ([5]; 100-day-old culture, alone): no efficacy; Activity in combination versus NixTB combination ([5]; Pretomanid 20.87 μM, Bedaquiline 2.25 μM, test drug 20, 8, 1 μM): comparable; CFU reduction versus PB ([5]; added to PB, 50 μM): superior CFU reduction; Cidal activity compared to the NixTB combination ([5]; 50 μM): complete sterilization; also recorded: two log units better; Cidal activity compared to the NixTB combination ([5]; all compounds at 20 μM): one-log improvement; Decrease of extent of lung pathology (Mtb [6]; BALB/c, 30 mg/kg oral once-daily, weeks 4-8): ~45%; Lung bacterial burden when added to sub-optimal rifampicin (Mtb [6]; BALB/c, 30 mg/kg plus sub-optimal dose of rifampicin): did not increase the bacterial burden; Reduction in lung CFUs (Mtb [6]; 5 mg/kg): ~0.4 log10; Reduction in lung CFUs (Mtb [6]; po, 30 mg/kg): ~0.4 log10; IC50 (Mtb H37Ra): 30.1 nM

Q: With Cn1ncnc1CC(=O)N1[C@@H]2CC(c3nc(-c4ccc(Cl)c(Cl)c4)no3)C[C@H]1C2 (stereo partly shown) [drawing 4] as the molecule, how does the IC50 (hERG) read?
A: 11800 nM

Q: What about the “ER mouse/human: mouse” value (Extraction ratio, mouse) of the same molecule?
A: <0.3/<0.3

Q: And the fraction unbound [7]?
A: 0.022

Q: And the solubility (Solubility at pH 6.8)?
A: 94 µM (≈ 40.7 µg/mL)

Q: And the fraction unbound (Caseum binding)?
A: < 0.0001

Q: And the “ER mouse/human: human” value (Extraction ratio, human)?
A: <0.3/<0.3

Q: For Cc1nonc1CC(=O)N1CCC(n2nnc(-c3ccc(F)cc3)n2)CC1 [Compound V-59, 1-(4-(5-(4-fluorophenyl)-2H-tetrazol-2-yl)piperidin-1-yl)-2-(4-methyl-1,2,5-oxadiazol-3-yl)ethan-1-one], which “Decrease of 14CO2 release from [4-14C]-cholesterol” value ([8]; WT Mtb) is on record?
A: ~89%

Q: What about the “Effect on 14CO2 release from [U-14C]-palmitate” value ([8]; fatty acid breakdown) of the same molecule?
A: no measurable effect

Q: And the “Inhibition of Mtb growth in acetate media or standard rich growth media” value (Mtb [9])?
A: not

Q: And the EC50 (M. tuberculosis)?
A: 700 nM

Q: What about the “Activation of ACs in mammalian cells” value (mammalian AC enzymes) of the same molecule?
A: No evidence

Q: And the EC50 (Mtb in macrophages)?
A: 300 nM

Q: And the “Decrease of prpD'::GFP signal in CompFull” value (prpD'::GFP reporter; CompFull strain)?
A: ~90%

Q: And the “Decrease of prpD'::GFP signal in WT” value (prpD'::GFP reporter; WT)?
A: ~50%

Q: And the “Plasma exposure above the EC50 (cholesterol media)” value ([4]; oral dosing in mice at 20 mg/kg)?
A: approximately 24 hours

Q: What about the “cAMP induction in WT Mtb” value (Rv1625c) of the same molecule?
A: ~70 fold

Q: What about the “cAMP induction in CompFull Mtb” value (Rv1625c; CompFull strain) of the same molecule?
A: ~140 fold

Q: What about the “Reduction of extent of lung inflammation” value (Mtb [6]; BALB/c, 50 mg/kg oral once-daily, weeks 4-8) of the same molecule?
A: ~50%

Q: And the “Reduction in lung CFUs” value (Mtb [6]; po, 50 mg/kg)?
A: ~0.4 log10

Q: What about the “Reduction in lung CFUs” value (Mtb [10]) of the same molecule?
A: ~0.5 log10

From patent publication US20260048047A1, “SMALL-MOLECULE ACTIVATORS OF MYCOBACTERIUM TUBERCULOSIS ADENYLYL CYCLASE” (priority 2022, published 2026)
